Earlier results in article PMC5488687 (The Biochemical journal, 2016).
Where two headings read alike, the source gives them in different places.

Key:
[1] = tested on: cells with amplified centrosomes
[2] = tested on: normal human dermal fibroblasts (NHDF)
[3] = tested on: neuroblastoma N1E-115 cells
[4] = tested on: normal human dermal fibroblasts (NHDF); settings: read-out: IC50, cell viability of NHDF cells
[5] = tested on: neuroblastoma N1E-115 cells; settings: read-out: IC50, cell viability of N1E-115 cells

Q: For `CCCc1cc(C(=O)N[C@H](Cc2ccc(-c3cccc(OC(F)(F)F)c3)nc2)C(=O)N[C@@H]2CCNC2)sc1C` [AZ82], which IC50 (KIFC1; read-out: IC50, MT-stimulated KIFC1 ATPase activity) is on record?
A: 0.3 µM

Q: What about the “multipolar spindle formation and mitotic catastrophe” value [1] of the same molecule?
A: triggered multipolar spindle formation and mitotic catastrophe

Q: And the “binding to KIFC1/MT complex versus KIFC1 or MT alone” value (KIFC1/MT complex)?
A: bound specifically to KIFC1/MT complex but did not interact directly with KIFC1 or MT

Q: What does the source list for `O=C(O)c1cc(I)ccc1NC(=O)[C@H](Cc1ccccc1)NCc1ccccc1` [CW069]?
A: IC50 (KIFC1; read-out: IC50, KIFC1 ATPase activity): 75 µM; effect on bipolar spindle formation in NHDF [2]: no effects; multipolar spindle formation in N1E-115 cells [3]: increased multipolar spindle formation; IC50 [4]: 187 µM; IC50 [5]: 86 µM
